# Experimental data published in US20120100990A1, “4 -AMINOPICOLINATES AND THEIR USE AS HERBICIDES” (SYNGENTA CROP PROTECTION LLC, priority 2009, published 2012).
# Assays:
# Type in all cases: in vivo
# [1] = system: Alopecurus myosuroides (ALOMY); test: Pre-emergence biological efficacy, glasshouse pot test; conditions: 312 h, 1,000 g/ha, evaluated after 13 days, 100=total damage, 0=no damage, read-out: Percentage damage caused to weed species, pre-emergence, ALOMY
# Experimental: (§1) Seeds of Alopecurus myosuroides (ALOMY), Setaria faberi (SETFA), Echinochloa crus-galli (ECHCG), Solanum nigrum (SOLNI), Amaranthus retroflexus (AMARE) and Ipomea hederaceae (IPOHE) were sown in standard soil in pots. After cultivation for one day under controlled conditions in a glasshouse (at 24/16° C., day/night; 14 hours light; 65% humidity), the plants were sprayed with an aqueous spray solution derived from the formulation of the technical active ingredient in acetone/water (50:50) solution containing 0.5% Tween 20 (polyoxyethylene sorbitan monolaurate, CAS RN 9005-64-5) to give a final dose of 1000 or 250 g/ha of test compound. The test plants were then grown under controlled conditions in the glasshouse (at 24/16° C., day/night; 14 hours light; 65% humidity) and watered twice daily. After 13 days the test was evaluated (100=total damage to plant; 0=no damage to plant).
# [2] = system: Amaranthus retroflexus (AMARE); test: as above; conditions: 312 h, 1,000 g/ha, evaluated after 13 days, 100=total damage, 0=no damage, read-out: Percentage damage caused to weed species, pre-emergence, AMARE
# Experimental: as §1
# [3] = system: Echinochloa crus-galli (ECHCG); test: as above; conditions: 312 h, 1,000 g/ha, evaluated after 13 days, 100=total damage, 0=no damage, read-out: Percentage damage caused to weed species, pre-emergence, ECHCG
# Experimental: as §1
# [4] = system: Ipomea hederaceae (IPOHE); test: as above; conditions: Ipomoea hederacea, 312 h, 1,000 g/ha, evaluated after 13 days, 100=total damage, 0=no damage, read-out: Percentage damage caused to weed species, pre-emergence, IPOHE
# Experimental: as §1
# Setaria faberi (SETFA) [5] = test: as above; conditions: 312 h, 1,000 g/ha, evaluated after 13 days, 100=total damage, 0=no damage, read-out: Percentage damage caused to weed species, pre-emergence, SETFA
# Experimental: as §1
# Solanum nigrum (SOLNI) [6] = test: as above; conditions: 312 h, 1,000 g/ha, evaluated after 13 days, 100=total damage, 0=no damage, read-out: Percentage damage caused to weed species, pre-emergence, SOLNI
# Experimental: as §1
# [7] = system: Alopecurus myosuroides (ALOMY); test: Post-emergence biological efficacy, glasshouse pot test; conditions: 312 h, 1,000 g/ha, evaluated after 13 days, 100=total damage, 0=no damage, read-out: Percentage damage caused to weed species, post-emergence, ALOMY
# Experimental: as §1, with “for 8 days” for “for one day”, “grown on” for “grown”, “in a” for “in the”
# [8] = system: Amaranthus retroflexus (AMARE); test: as above; conditions: 312 h, 1,000 g/ha, evaluated after 13 days, 100=total damage, 0=no damage, read-out: Percentage damage caused to weed species, post-emergence, AMARE
# Experimental: as §1, with “for 8 days” for “for one day”, “grown on” for “grown”, “in a” for “in the”
# [9] = system: Echinochloa crus-galli (ECHCG); test: as above; conditions: 312 h, 1,000 g/ha, evaluated after 13 days, 100=total damage, 0=no damage, read-out: Percentage damage caused to weed species, post-emergence, ECHCG
# Experimental: as §1, with “for 8 days” for “for one day”, “grown on” for “grown”, “in a” for “in the”
# [10] = system: Ipomea hederaceae (IPOHE); test: as above; conditions: Ipomoea hederacea, 312 h, 1,000 g/ha, evaluated after 13 days, 100=total damage, 0=no damage, read-out: Percentage damage caused to weed species, post-emergence, IPOHE
# Experimental: as §1, with “for 8 days” for “for one day”, “grown on” for “grown”, “in a” for “in the”
# Setaria faberi (SETFA) [11] = test: as above; conditions: 312 h, 1,000 g/ha, evaluated after 13 days, 100=total damage, 0=no damage, read-out: Percentage damage caused to weed species, post-emergence, SETFA
# Experimental: as §1, with “for 8 days” for “for one day”, “grown on” for “grown”, “in a” for “in the”
# Solanum nigrum (SOLNI) [12] = test: as above; conditions: 312 h, 1,000 g/ha, evaluated after 13 days, 100=total damage, 0=no damage, read-out: Percentage damage caused to weed species, post-emergence, SOLNI
# Experimental: as §1, with “for 8 days” for “for one day”, “grown on” for “grown”, “in a” for “in the”
smiles,measurement,setting,value
"COC(=O)c1nc(Cl)cc(NCc2ccc(Cl)cc2)c1Cl [Compound 5-2, 4-[(4-Chlorophenyl-methyl)-amino]-3,6-dichloro-pyridine-2-carboxylic acid methyl ester]",pest or weed control at 1000 g/ha,[1],20%
same,pest or weed control at 1000 g/ha,[2],100%
same,pest or weed control at 1000 g/ha,[3],10%
same,pest or weed control at 1000 g/ha,[4],90%
same,pest or weed control at 1000 g/ha,Setaria faberi (SETFA) [5],50%
same,pest or weed control at 1000 g/ha,Solanum nigrum (SOLNI) [6],100%
same,pest or weed control at 1000 g/ha,[7],50%
same,pest or weed control at 1000 g/ha,[8],100%
same,pest or weed control at 1000 g/ha,[9],50%
same,pest or weed control at 1000 g/ha,[10],70%
same,pest or weed control at 1000 g/ha,Setaria faberi (SETFA) [11],70%
same,pest or weed control at 1000 g/ha,Solanum nigrum (SOLNI) [12],100%
"COC(=O)c1nc(Cl)cc(NCc2ccccc2F)c1Cl [Compound 6-2, 3,6-Dichloro-4-[(2-fluorophenylmethyl)-amino]-pyridine-2-carboxylic acid methyl ester]",pest or weed control at 1000 g/ha,[1],70%
same,pest or weed control at 1000 g/ha,[2],100%
same,pest or weed control at 1000 g/ha,[3],60%
same,pest or weed control at 1000 g/ha,[4],90%
same,pest or weed control at 1000 g/ha,Setaria faberi (SETFA) [5],80%
same,pest or weed control at 1000 g/ha,Solanum nigrum (SOLNI) [6],100%
same,pest or weed control at 1000 g/ha,[7],60%
same,pest or weed control at 1000 g/ha,[8],100%
same,pest or weed control at 1000 g/ha,[9],40%
same,pest or weed control at 1000 g/ha,[10],70%
same,pest or weed control at 1000 g/ha,Setaria faberi (SETFA) [11],90%
same,pest or weed control at 1000 g/ha,Solanum nigrum (SOLNI) [12],100%
"C=Cc1c(NCc2ccccc2F)cc(Cl)nc1C(=O)OC [Compound 6-12, 6-Chloro-3-ethenyl-4-[(2-fluorophenyl-methyl)-amino]-pyridine-2-carboxylic acid methyl ester]",pest or weed control at 1000 g/ha,[1],40%
same,pest or weed control at 1000 g/ha,[2],100%
same,pest or weed control at 1000 g/ha,[3],30%
same,pest or weed control at 1000 g/ha,[4],60%
same,pest or weed control at 1000 g/ha,Setaria faberi (SETFA) [5],40%
same,pest or weed control at 1000 g/ha,Solanum nigrum (SOLNI) [6],100%
same,pest or weed control at 1000 g/ha,[7],20%
same,pest or weed control at 1000 g/ha,[8],100%
same,pest or weed control at 1000 g/ha,[9],20%
same,pest or weed control at 1000 g/ha,[10],70%
same,pest or weed control at 1000 g/ha,Setaria faberi (SETFA) [11],80%
same,pest or weed control at 1000 g/ha,Solanum nigrum (SOLNI) [12],90%
"COC(=O)c1nc(Cl)cc(NCc2cccc(F)c2)c1Cl [Compound 7-2, 3,6-Dichloro-4-[(3-fluorophenylmethyl)-amino]-pyridine-2-carboxylic acid methyl ester]",pest or weed control at 1000 g/ha,[1],50%
same,pest or weed control at 1000 g/ha,[2],100%
same,pest or weed control at 1000 g/ha,[3],50%
same,pest or weed control at 1000 g/ha,[4],100%
same,pest or weed control at 1000 g/ha,Setaria faberi (SETFA) [5],80%
same,pest or weed control at 1000 g/ha,Solanum nigrum (SOLNI) [6],100%
same,pest or weed control at 1000 g/ha,[7],50%
same,pest or weed control at 1000 g/ha,[8],100%
same,pest or weed control at 1000 g/ha,[9],50%
same,pest or weed control at 1000 g/ha,[10],80%
same,pest or weed control at 1000 g/ha,Setaria faberi (SETFA) [11],90%
same,pest or weed control at 1000 g/ha,Solanum nigrum (SOLNI) [12],100%
"C=Cc1c(NCc2c(Cl)cccc2Cl)cc(Cl)nc1C(=O)OC [Compound 21-12, 6-Chloro-4-[(2,6-dichlorophenyl-methyl)-amino]-3-ethenyl-pyridine-2-carboxylic acid methyl ester]",pest or weed control at 1000 g/ha,[1],0%
same,pest or weed control at 1000 g/ha,[2],100%
same,pest or weed control at 1000 g/ha,[3],0%
same,pest or weed control at 1000 g/ha,[4],30%
same,pest or weed control at 1000 g/ha,Setaria faberi (SETFA) [5],0%
same,pest or weed control at 1000 g/ha,[7],20%
same,pest or weed control at 1000 g/ha,[8],100%
same,pest or weed control at 1000 g/ha,[9],10%
same,pest or weed control at 1000 g/ha,[10],30%
same,pest or weed control at 1000 g/ha,Setaria faberi (SETFA) [11],0%
same,pest or weed control at 1000 g/ha,Solanum nigrum (SOLNI) [12],80%
